According to patent US11649242B2, “Pyrrolopyrrole compositions as pyruvate kinase (PKR) activators” (FORMA Therapeutics, Inc., priority 2017, dated 2023):

Assays:
Type in all cases: biochemical
[1] = biological target: PKR(R510Q) (Homo sapiens, UniProt P30613, R510Q); experiment: Luminescence Assay Protocol (Kinase Glo Plus), PKR(R510Q/without FBP); conditions: PKRR510Q, without FBP; for activation at 1.54 µM / F - AC50 LUM KGP woFBP % Fold @ 1.54 μM mean: compound 1.54 μM; for activation at 1.54 µM: read-out: F - AC50 LUM KGP woFBP % Fold @ 1.54 μM mean; for AC50: gmean, read-out: D - AC50 LUM KGP woFBP AC50 μM gmean; for Emax / E - AC50 LUM KGP woFBP MAX % FOLD mean: highest % fold increase at any concentration; for Emax: read-out: E - AC50 LUM KGP woFBP MAX % FOLD mean
In short: (§1)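 Enzyme (wt 0.8 nM, R510Q 0.8 nM, G332S 10 nM) was preincubated 30 min at RT with compound and 100 μM PEP in Tris/KCl/MgCl2 buffer, then started with 100 μM ADP, plus 30 μM FBP for G332S. Luminescence was read after 45 min at RT. AC50 came from a four-parameter fit of % fold over DMSO across 42.5 μM–2.2 nM.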

[2] = biological target: PKR(G332S) (Homo sapiens, UniProt P30613, G332S); experiment: Luminescence Assay Protocol (Kinase Glo Plus), PKR(G332S/with FBP); conditions: PKRG332S, with FBP; for activation at 1.54 µM: read-out: C - AC50 LUM KGP FBP % Fold @ 1.54 μM mean; for AC50: gmean, read-out: A - AC50 LUM KGP FBP AC50 μM gmean; for Emax: read-out: B - AC50 LUM KGP FBP MAX % FOLD mean
In short: as §1

[3] = biological target: PKR(wt) (Homo sapiens, UniProt P30613); experiment: Luminescence Assay Protocol (Kinase Glo Plus), PKR(Wt/without FBP); conditions: without FBP; for activation at 1.54 µM: read-out: I - AC50 LUM KGP woFBP % Fold @ 1.54 μM mean; for AC50: gmean, read-out: G - AC50 LUM KGP woFBP AC50 μM gmean; for Emax / H - AC50 LUM KGP woFBP MAX % FOLD mean: highest % fold increase at any concentration; for Emax: read-out: H - AC50 LUM KGP woFBP MAX % FOLD mean
In short: as §1

[4] = highest % fold increase at any concentration

Chain of PKR(R510Q) (P30613 whole entry R510Q): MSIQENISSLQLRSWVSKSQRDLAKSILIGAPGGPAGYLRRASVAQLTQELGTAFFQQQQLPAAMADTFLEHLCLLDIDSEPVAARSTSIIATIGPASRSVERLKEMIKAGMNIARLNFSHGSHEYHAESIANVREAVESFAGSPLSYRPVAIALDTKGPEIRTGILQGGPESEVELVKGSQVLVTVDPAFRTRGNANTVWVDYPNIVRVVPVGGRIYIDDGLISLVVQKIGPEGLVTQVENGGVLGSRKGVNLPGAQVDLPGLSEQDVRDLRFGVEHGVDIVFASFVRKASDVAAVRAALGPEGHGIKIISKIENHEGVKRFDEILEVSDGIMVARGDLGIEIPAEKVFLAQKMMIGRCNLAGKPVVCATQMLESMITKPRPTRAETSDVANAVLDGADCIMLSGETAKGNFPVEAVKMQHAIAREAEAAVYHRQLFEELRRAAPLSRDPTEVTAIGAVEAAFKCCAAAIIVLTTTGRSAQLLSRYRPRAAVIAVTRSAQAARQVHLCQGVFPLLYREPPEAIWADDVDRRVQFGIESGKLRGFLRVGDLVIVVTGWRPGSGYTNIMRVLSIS
Chain of PKR(wt) (P30613 whole entry): as the sequence (P30613 whole entry R510Q) above, with Q510R counted along it
Chain of PKR(G332S) (P30613 whole entry G332S): as the sequence (P30613 whole entry R510Q) above, with G332S, Q510R counted along it

For C[C@@H](O)[C@@H](C(=O)N1CC2=C(C1)CN(S(=O)(=O)c1ccc(OC(F)F)cc1)C2)c1ccccc1 (racemic) [Example 26, (2S,3R and 2R,3S)-1-(5-((4-(difluoromethoxy)phenyl)sulfonyl)-3,4,5,6-tetrahydropyrrolo[3,4-c]pyrrol-2(1H)-yl)-3-hydroxy-2-phenylbutan-1-one], the activation at 1.54 µM [1] was 250 to 500%, the AC50 [1] was no more than 0.1 µM and the Emax [1] was 250 to 500%. The activation at 1.54 µM ([2]; compound 1.54 μM) was 75 to 250%, the AC50 [2] was no more than 0.1 µM and the Emax [2, 4] was 75 to 250%. It also gave an activation at 1.54 µM ([3]; compound 1.54 μM) of 250 to 500%, an AC50 [3] of no more than 0.1 µM and an Emax [3] of 250 to 500%.

CC(C)(CO)C(=O)N1CC2=C(C1)CN(S(=O)(=O)c1ccc3ncsc3c1)C2 [Example 19, 1-(5-(benzo[d]thiazol-6-ylsulfonyl)-3,4,5,6-tetrahydropyrrolo[3,4-c]pyrrol-2(1H)-yl)-3-hydroxy-2,2-dimethylpropan-1-one] gave an activation at 1.54 µM [1] of 75 to 250%, an AC50 [1] of 0.1 to 1 µM and an Emax [1] of 250 to 500%. The activation at 1.54 µM ([2]; compound 1.54 μM) was 75 to 250%, the AC50 [2] was greater than 40 µM and the Emax [2, 4] was 75 to 250%. The activation at 1.54 µM ([3]; compound 1.54 μM) was 75 to 250%, the AC50 [3] was 0.1 to 1 µM and the Emax [3] was 75 to 250%.

Work on O=C(C(CO)c1ccccc1)N1CC2=C(C1)CN(S(=O)(=O)c1ccc3ncsc3c1)C2 (stereo not drawn) [Example 48, 1-(5-(benzo[d]thiazol-6-ylsulfonyl)-3,4,5,6-tetrahydropyrrolo[3,4-c]pyrrol-2(1H)-yl)-3-hydroxy-2-phenylpropan-1-one] yielded an activation at 1.54 µM [1] of 250 to 500%, an AC50 [1] of no more than 0.1 µM and an Emax [1] of 250 to 500%. For the same compound, the activation at 1.54 µM ([2]; compound 1.54 μM) was 75 to 250%, the AC50 [2] was no more than 0.1 µM and the Emax [2, 4] was 75 to 250%. For the same compound, the activation at 1.54 µM ([3]; compound 1.54 μM) was 250 to 500%, the AC50 [3] was no more than 0.1 µM and the Emax [3] was 250 to 500%.

O=C(C1CCCOC1)N1CC2=C(C1)CN(S(=O)(=O)c1ccccn1)C2 (single isomer, unassigned) [Example 44, (R or S)-(5-(pyridin-2-ylsulfonyl)-3,4,5,6-tetrahydropyrrolo[3,4-c]pyrrol-2(1H)-yl)(tetrahydro-2H-pyran-3-yl)methanone] was tested, and the activation at 1.54 µM [1] was 75 to 250%, the AC50 [1] was greater than 40 µM and the “E - AC50 LUM KGP woFBP MAX % FOLD mean” value [1] was “++ (>75% and ≤250% (++))”. It also gave an activation at 1.54 µM ([2]; compound 1.54 μM) of 75 to 250%, an AC50 [2] of 1 to 40 µM and an Emax [2, 4] of 75 to 250%. The activation at 1.54 µM ([3]; compound 1.54 μM) was 75 to 250%, the AC50 [3] was 1 to 40 µM and the “H - AC50 LUM KGP woFBP MAX % FOLD mean” value [3] was “++ (>75% and ≤250% (++))”.

With O=C(C1CCCOC1)N1CC2=C(C1)CN(S(=O)(=O)c1ccc3ncsc3c1)C2 (stereo not drawn) [Example 15, (5-(benzo[d]thiazol-6-ylsulfonyl)-3,4,5,6-tetrahydropyrrolo[3,4-c]pyrrol-2(1H)-yl)(tetrahydro-2H-pyran-3-yl)methanone] the activation at 1.54 µM [1] was 75 to 250%, the AC50 [1] was 1 to 40 µM and the Emax [1] was 250 to 500%. It also gave an activation at 1.54 µM ([2]; compound 1.54 μM) of 75 to 250%, an AC50 [2] greater than 40 µM and an Emax [2, 4] of 75 to 250%. The activation at 1.54 µM ([3]; compound 1.54 μM) was 75 to 250%, the AC50 [3] was 0.1 to 1 µM and the Emax [3] was 75 to 250%.

For O=C(C1CCCOC1)N1CC2=C(C1)CN(S(=O)(=O)c1ccccn1)C2 (single isomer, unassigned) [Example 45, (S or R)-(5-(pyridin-2-ylsulfonyl)-3,4,5,6-tetrahydropyrrolo[3,4-c]pyrrol-2(1H)-yl)(tetrahydro-2H-pyran-3-yl)methanone], the “F - AC50 LUM KGP woFBP % Fold @ 1.54 μM mean” value [1] was “++ (>75% and ≤250% (++))”, the AC50 [1] was 1 to 40 µM and the “E - AC50 LUM KGP woFBP MAX % FOLD mean” value [1] was “+++ (>250% and ≤500% (+++))”. For the same compound, the “C - AC50 LUM KGP FBP % Fold @ 1.54 μM mean” value ([2]; compound 1.54 μM) was “++ (>75% and ≤250% (++))”, the AC50 [2] was 0.1 to 1 µM and the “B - AC50 LUM KGP FBP MAX % FOLD mean” value [2, 4] was “++ (>75% and ≤250% (++))”. The “I - AC50 LUM KGP woFBP % Fold @ 1.54 μM mean” value ([3]; compound 1.54 μM) was “++ (>75% and ≤250% (++))”, the AC50 [3] was 0.1 to 1 µM and the “H - AC50 LUM KGP woFBP MAX % FOLD mean” value [3] was “+++ (>250% and ≤500% (+++))”.

In the case of O=C([C@@H](CO)c1ccccc1)N1CC2=C(C1)CN(S(=O)(=O)c1cnc3c(c1)OCCO3)C2 (single isomer, unassigned) [Example 2], the activation at 1.54 µM [1] is reported as 75 to 250%, the Emax [1] is reported as 250 to 500% and the activation at 1.54 µM ([2]; compound 1.54 μM) is reported as 75 to 250%. The Emax [2, 4] was 75 to 250%, the activation at 1.54 µM ([3]; compound 1.54 μM) was 75 to 250% and the Emax [3] was 75 to 250%.

O=C(C1CCCOC1)N1CC2=C(C1)CN(S(=O)(=O)c1cnc3c(c1)OCCO3)C2 (single isomer, unassigned) [Example 5, (R or S)-(5-((2,3-dihydro-[1,4]dioxino[2,3-b]pyridin-7-yl)sulfonyl)-3,4,5,6-tetrahydropyrrolo[3,4-c]pyrrol-2(1H)-yl)(tetrahydro-2H-pyran-3-yl)methanone] showed an activation at 1.54 µM [1] of 75 to 250%, an AC50 [1] of 1 to 40 µM and an Emax [1] of 250 to 500%. For the same compound, the activation at 1.54 µM ([2]; compound 1.54 μM) was 75 to 250%, the AC50 [2] was 1 to 40 µM and the Emax [2, 4] was 75 to 250%. It also gave an activation at 1.54 µM ([3]; compound 1.54 μM) of 75 to 250%, an AC50 [3] of 0.1 to 1 µM and an Emax [3] of 75 to 250%.

O=C(C(CO)c1ccccc1)N1CC2=C(C1)CN(S(=O)(=O)c1ccc(OC(F)F)cc1)C2 (stereo not drawn) [Example 49, 1-(5-((4-(difluoromethoxy)phenyl)sulfonyl)-3,4,5,6-tetrahydropyrrolo[3,4-c]pyrrol-2(1H)-yl)-3-hydroxy-2-phenylpropan-1-one] was tested, and the activation at 1.54 µM [1] was 250 to 500%, the AC50 [1] was no more than 0.1 µM and the Emax [1] was 250 to 500%. The activation at 1.54 µM ([2]; compound 1.54 μM) was 75 to 250%, the AC50 [2] was no more than 0.1 µM and the Emax [2, 4] was 75 to 250%. It also gave an activation at 1.54 µM ([3]; compound 1.54 μM) of 250 to 500%, an AC50 [3] of no more than 0.1 µM and an Emax [3] of 250 to 500%.

O=C([C@@H]1CCOC1)N1CC2=C(C1)CN(S(=O)(=O)c1ccc3ncsc3c1)C2 [Example 20, (R)-(5-(benzo[d]thiazol-6-ylsulfonyl)-3,4,5,6-tetrahydropyrrolo[3,4-c]pyrrol-2(1H)-yl)(tetrahydrofuran-3-yl)methanone] gave an activation at 1.54 µM [1] of 75 to 250%, an AC50 [1] of 1 to 40 µM and an Emax [1] of 250 to 500%. For the same compound, the activation at 1.54 µM ([2]; compound 1.54 μM) was 75 to 250%, the AC50 [2] was 0.1 to 1 µM and the Emax [2, 4] was 75 to 250%. It also gave an activation at 1.54 µM ([3]; compound 1.54 μM) of 75 to 250%, an AC50 [3] of 0.1 to 1 µM and an Emax [3] of 250 to 500%.

O=C(C1CCCOC1)N1CC2=C(C1)CN(S(=O)(=O)c1ccc3c(c1)NCCO3)C2 (single isomer, unassigned) [Example 33, (S or R)-(5-((3,4-dihydro-2H-benzo[b][1,4]oxazin-6-yl)sulfonyl)-3,4,5,6-tetrahydropyrrolo[3,4-c]pyrrol-2(1H)-yl)(tetrahydro-2H-pyran-3-yl)methanone] was tested, and the “F - AC50 LUM KGP woFBP % Fold @ 1.54 μM mean” value [1] was “++ (>75% and ≤250% (++))”, the AC50 [1] was 1 to 40 µM and the Emax [1] was 250 to 500%. It also gave an activation at 1.54 µM ([2]; compound 1.54 μM) of 75 to 250%, an AC50 [2] greater than 40 µM and an Emax [2, 4] of 75 to 250%. The activation at 1.54 µM ([3]; compound 1.54 μM) was 75 to 250%, the AC50 [3] was 1 to 40 µM and the Emax [3] was 75 to 250%.

For C[C@@H](O)[C@H](C(=O)N1CC2=C(C1)CN(S(=O)(=O)c1ccc(OC(F)F)cc1)C2)c1ccccc1 (racemic) [Example 27, (2R,3R and 2S,3S)-1-(5-((4-(difluoromethoxy)phenyl)sulfonyl)-3,4,5,6-tetrahydropyrrolo[3,4-c]pyrrol-2(1H)-yl)-3-hydroxy-2-phenylbutan-1-one], the activation at 1.54 µM [1] was 250 to 500%, the AC50 [1] was 0.1 to 1 µM and the Emax [1] was 250 to 500%. It also gave an activation at 1.54 µM ([2]; compound 1.54 μM) of 75 to 250%, an AC50 [2] of no more than 0.1 µM and an Emax [2, 4] of 75 to 250%. It also gave an activation at 1.54 µM ([3]; compound 1.54 μM) of 250 to 500%, an AC50 [3] of no more than 0.1 µM and an Emax [3] of 250 to 500%.

O=C([C@H](CO)c1ccccc1)N1CC2=C(C1)CN(S(=O)(=O)c1ccc3c(c1)NCCO3)C2 [Example 35, (S)-1-(5-((3,4-dihydro-2H-benzo[b][1,4]oxazin-6-yl)sulfonyl)-3,4,5,6-tetrahydropyrrolo[3,4-c]pyrrol-2(1H)-yl)-3-hydroxy-2-phenylpropan-1-one] was tested, and the activation at 1.54 µM [1] was 250 to 500%, the AC50 [1] was no more than 0.1 µM and the Emax [1] was 250 to 500%. For the same compound, the activation at 1.54 µM ([2]; compound 1.54 μM) was 75 to 250%, the AC50 [2] was no more than 0.1 µM and the Emax [2, 4] was 75 to 250%. It also gave an activation at 1.54 µM ([3]; compound 1.54 μM) of 75 to 250%, an AC50 [3] of no more than 0.1 µM and an Emax [3] of 75 to 250%.
